Marks after values point to notes of the source that are not given here.
Legend:
[1] = tested on: semimembranosus beef muscles; test: Muscle pH, pre-rigor injection of whole muscle
Experimental: (§1) Experiment were conducted to test the effects of pre-rigor injection of several compounds. Effects of these compounds on pH, color, tenderness and other related traits of low-value beef cuts were investigated. Ten steers (22 to 24 mo of age, 515 to 676 kg live weight) were slaughtered according to current industry procedures. Pre-rigor semimembranosus (from the round), triceps brachii and supraspinatus muscles (from the chuck) were excised, after evisceration (approximately 1 hour post-mortem), from both sides of the carcass. Muscle sections were randomly assigned to the treatments: sodium citrate (NaC; 200 mM), sodium fluoride (NaF; 200 mM), sodium acetate (NaA; 200 mM), and calcium chloride (CaCl2; 300 mM). The control samples remained on the carcass at 2° C. for 24 hours to simulate commercial conditions. Following a cooling, control muscles were removed from each carcass (4 replicates), vacuum packaged and transferred to the holding cooler with the other cuts at 2° C. Calcium chloride treatment was included to be compared with the other treatments.
(§2) At 2 hours post-mortem, each muscle was injected with a volume equal to 8% of the muscle weight using a four-needle hand injector. The temperature of solutions were 4° C. Each muscle was individually treated (2% of solution was added to give a total of 10% of muscle weight) and tumbled in a 75-pound capacity tumbler (Röschermatic, Oshabrück, Germany) for 30 min to insure uniform distribution of the solution.
(§3) Samples of each muscle (approximately 100 g) were taken at 0 hour (before injection), 24, and 72 hours after injection for determination of pH, oxidation-reduction potential, glycogen content, R-values, NAD, and NADH. The samples were then immediately frozen in liquid nitrogen and stored at −80° C. until they were powdered and analyzed. Fresh muscle samples (approximately 20 g) were taken at 72 hours after injection and assayed immediately for water holding capacity and sarcomere length.
(§4) Duplicate pre-rigor samples (5 g) were weighed from powdered sample and homogenized (Polytron, Brinkman Instruments, New York, N.Y.) in 50 mL of 5 mM iodoacetic acid, 150 mM potassium chloride (pH 7.0, 24° C.) to stop glycolysis (Ahn et al., 1992). The pH of the suspension was measured with a general purpose electrode (Corning Glass Works, Corning, N.Y.) attached to an Orion Model SA 720 pH meter (Orion Research, Inc., Boston, Mass.). Post-rigor muscle pH was determined by homogenizing 5 g of sample in 50 mL of deionized water (Winger et al., 1979).

[2] = tested on: triceps brachii beef muscles; test: Muscle pH, pre-rigor injection of whole muscle; conditions: 200 mM, calcium chloride 300 mM
Experimental: as §1, §2, §3, §4

[3] = tested on: supraspinatus beef muscles; test: Muscle pH, pre-rigor injection of whole muscle
Experimental: as §1, §2, §3, §4

[4] = tested on: semimembranosus beef muscles; test: Glycogen content, pre-rigor injection of whole muscle
Experimental: as §1, §2, §3
(§5) Glycogen extraction was performed in duplicate with 3 g of frozen-powdered muscle sample, which was homogenized with 0.6 N perchloric acid. Amylo-α-1,4-α-1,6- glucosidase from Aspergillus niger (No. A3514. Sigma Chemical, St. Louis, Mo.) was used for the breakdown of the glycogen molecules to free glucose following the method described by Roehrig and Allred (1974). Homogenate was incubated for 2 hours at 37° C., then 100 μL of 3 N perchloric acid was added to precipitate the proteins. After centrifugation, the supernatant was stored at 0-4° C., until analyzed, which was within 2 weeks.
(§6) The assay for glucose was run as described by Dalrymple and Hamm (1973) and Roehrig and Allred (1974), using glucose-6-phosphate dehydrogenase (No. G8878. Sigma Chemical, St. Louis, Mo.) and hexokinase (No. H5500. Sigma Chemical, St. Louis, Mo.). Briefly, the method involves an exoglucosidase, Amylogucosidase, from Aspergillus niger which hydrolyses the -α-D-(1-4) and -α-D-(1-6)-linkages of glycogen. The glucose formed is specifically determined with hexokinase and glucose-6-phosphate dehydrogenase. The glucose liberated after hydrolysis of glycogen is proportional to the increase of absorbance measured at 340 nm. Fifty μL of sample was incubated with 1 mL ATP, NADP, Glucose-6-phosphate dehydrogenase buffer and 5 μL hexokinase at 37° C. for 15 min. Absorbance was measured at 340 nm wavelength, light path=1 cm. The muscle glycogen content was calculated with the following formula: Glycogen (μmol glucose/g wet muscle weight)=111.882×absorbance. 111.882 is the dilution factor.

[5] = tested on: triceps brachii beef muscles; test: as above; conditions: 200 mM, calcium chloride 300 mM
Experimental: as §1, §2, §3, §5, §6

[6] = tested on: supraspinatus beef muscles; test: as above
Experimental: as §1, §2, §3, §5, §6

Triceps brachii (TBR) = test: Warner-Bratzler shear force of muscle pumped pre-rigor with sodium citrate; design: species or system steers; unit not given here
Experimental: Thoracic limbs from 14 steers were chilled on the carcass (controls) or removed within 2 hours post-mortem and pumped to 10% of muscle weight with water, 200 mM or 400 mM sodium citrate solutions. The injections were performed at various sites along the muscle. The control remained on the carcass. Muscle pH and temperature were measured immediately prior to pumping. Experimental and control muscles were chilled at 2° C. for 24 hours. Steaks (2.54 cm thick) were removed after 24 hours from the Infraspinatus, Supraspinatus and Triceps brachii muscles and were either frozen immediately or aged for another 6 days and then evaluated. A consumer panel evaluated palatability juiciness, tenderness, connective tissue amount, and flavor desirability) on Infraspinatus and Triceps brachii steaks using 9-point hedonic scales (1 being very undesirable and 9 being very desirable) for each trait. Warner-Bratzler shear force values were determined on 1.27 cm-diameter cores from steaks that were broiled to an internal temperature of 70° C.

[7] = tested on: sternomandibularis beef muscles; test: pH of pre-rigor injected sectioned muscle; conditions: injection 10% of muscle weight, 200 mM (glucose, calcium chloride 300 mM)
Experimental: Pre-rigor beef muscle was sectioned and the sections were injected at approximately 1 hour post-mortem with a volume of treatment solution equal to 10% of the muscle weight. Objective color measurements were taken on pieces of each muscle section and the pieces were then frozen, powdered and stored at −80° C. for up to 10 days before testing pH and analyzing oxidation-reduction potential. Shear force was evaluated as described immediately above. Solutions used in this procedure were as follows: sodium citrate (200 mM), sodium acetate (200 mM), glucose (300 mM), calcium citrate (200 mM), calcium chloride (300 mM), injection with water, and no injection (control). The calcium citrate solution was prepared as a suspension using 0.25% carrageenan and 200 mM calcium citrate due to its insolubility in water. However, use of calcium citrate can be optimized by increasing solubility by means known in the art.

[8] = 24 h, 200 mM, calcium chloride 300 mM
[9] = 72 h, 200 mM, calcium chloride 300 mM

Question: How did the “pH, 0 h” value ([1]; 0 h (before injection)) turn out when `O=C([O-])CC(O)(CC(=O)[O-])C(=O)[O-].[Na+].[Na+].[Na+]` [Sodium citrate, sodium citrate] was run?
Answer: The value was 6.68.

Question: And the “pH, 24 h” value [1, 8]?
Answer: Its value is 5.97^a.

Question: What about the “pH, 72 h” value [1, 9] of the same compound?
Answer: Its value is 5.78^b.

Question: And the “pH, 0 h” value ([2]; 0 h (before injection))?
Answer: Its value is 6.71.

Question: What about the “pH, 24 h” value ([2]; 24 h after injection) of the same compound?
Answer: Its value is 5.97^a.

Question: What about the “pH, 72 h” value ([2]; 72 h after injection) of the same compound?
Answer: Its value is 5.72^b.

Question: What about the “pH, 0 h” value ([3]; 0 h (before injection)) of the same compound?
Answer: The value was 6.73.

Question: And the “pH, 24 h” value [3, 8]?
Answer: Its value is 6.04^b.

Question: And the “pH, 72 h” value [3, 9]?
Answer: Its value is 5.86^b.

Question: And the “Glycogen, 0 h” value ([4]; 0 h (before injection))?
Answer: The value was 65.12 μmol/g muscle.

Question: And the “Glycogen, 24 h” value [4, 8]?
Answer: The value was 52.83^a μmol/g muscle.

Question: What about the “Glycogen, 72 h” value [4, 9] of the same compound?
Answer: Its value is 45.65^a μmol/g muscle.

Question: And the “Glycogen, 0 h” value ([5]; 0 h (before injection))?
Answer: The value was 38.74 μmol/g muscle.

Question: And the “Glycogen, 24 h” value ([5]; 24 h)?
Answer: The value was 32.93^b μmol/g muscle.

Question: And the “Glycogen, 72 h” value ([5]; 72 h)?
Answer: Its value is 27.58^b μmol/g muscle.

Question: And the “Glycogen, 0 h” value ([6]; 0 h (before injection))?
Answer: Its value is 45.18 μmol/g muscle.

Question: What about the “Glycogen, 24 h” value [6, 8] of the same compound?
Answer: The value was 30.43 μmol/g muscle.

Question: And the “Glycogen, 72 h” value [6, 9]?
Answer: The value was 22.65^ab μmol/g muscle.

Question: What about the WBSF (Triceps brachii (TBR); 200 mM, d1) of the same compound?
Answer: Its WBSF is 3.85^a.

Question: What about the WBSF (Triceps brachii (TBR); 200 mM, d7) of the same compound?
Answer: The WBSF was 3.57^b.

Question: What about the WBSF (Triceps brachii (TBR); 400 mM, d1) of the same compound?
Answer: Its WBSF is 3.55^a.

Question: What about the WBSF (Triceps brachii (TBR); 400 mM, d7) of the same compound?
Answer: The WBSF was 3.09^a.

Question: And the “PH (0 h)” value ([7]; 0 h)?
Answer: Its value is 6.86.

Question: And the “pH, 72 h” value ([7]; 72 h)?
Answer: Its value is 5.77^bc.

Reference: US20020054941A1, “Methods and compositions to enhance tenderness and value of meat” (The Board of Regents of the University of Nebraska, priority 2000, published 2002)
